We go through 15 compounds from article PMC4764904 (Scientific Reports, 2016).

One experiment concerns the target T1, human GALR3 (Homo sapiens, UniProt O60755).
T1 construct: host or cells: HEK293 cells stably expressing Gαqi
T1 sequence (O60755 1-368): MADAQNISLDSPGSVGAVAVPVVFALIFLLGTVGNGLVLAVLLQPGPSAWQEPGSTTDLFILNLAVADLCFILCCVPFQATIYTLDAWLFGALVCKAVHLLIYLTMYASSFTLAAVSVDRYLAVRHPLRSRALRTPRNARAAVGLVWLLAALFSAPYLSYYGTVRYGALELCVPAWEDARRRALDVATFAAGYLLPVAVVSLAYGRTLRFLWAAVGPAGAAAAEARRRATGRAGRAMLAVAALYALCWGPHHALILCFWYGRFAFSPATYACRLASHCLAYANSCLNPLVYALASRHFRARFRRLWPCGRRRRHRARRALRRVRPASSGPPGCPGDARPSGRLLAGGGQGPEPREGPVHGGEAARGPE
Kind of experiment: SRE-luc reporter assay, GALR3.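 Also: luciferase activity read in cell lysates across rising peptide concentrations, EC50 being the agonist concentration giving half-maximal stimulation from a sigmoidal nonlinear fit, Gαqi routing Gi-coupled receptor signaling through Gq.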 The format is cell-based.

A further experiment addresses T2, human GALR2 (Homo sapiens, UniProt O43603).
T2 construct: host or cells: HEK293 cells stably expressing Gαqi
T2 sequence (O43603 1-387): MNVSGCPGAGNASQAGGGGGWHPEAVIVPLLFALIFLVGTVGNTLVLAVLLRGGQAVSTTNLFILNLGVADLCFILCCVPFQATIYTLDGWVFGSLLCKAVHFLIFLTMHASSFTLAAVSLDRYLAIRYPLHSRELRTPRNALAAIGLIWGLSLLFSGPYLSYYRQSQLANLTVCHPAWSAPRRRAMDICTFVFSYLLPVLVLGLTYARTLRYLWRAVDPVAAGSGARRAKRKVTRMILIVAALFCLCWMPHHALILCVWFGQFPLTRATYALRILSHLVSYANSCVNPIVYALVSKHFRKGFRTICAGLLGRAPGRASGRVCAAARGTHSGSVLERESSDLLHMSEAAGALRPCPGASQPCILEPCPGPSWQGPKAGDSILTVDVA
The experiment can be described thus: SRE-luc reporter assay, GALR2.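 Also: luciferase activity read in cell lysates after exposure to rising peptide concentrations, EC50 being the agonist level giving half-maximal stimulation from a sigmoidal nonlinear regression fit.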 The format is cell-based. Background: A reporter such as luciferase makes a cellular process visible.

Setting [1] is: HEK293-Gqi cells transfected with SRE-luc and human GALR3, 6 h ligand treatment, mean ± S.E. of at least three independent experiments, NM = not measurable, read-out: GALR3 EC50.
The mark [2] stands for this setting: HEK293-Gqi cells transfected with SRE-luc and human GALR2, 6 h ligand treatment, mean ± S.E. of at least three independent experiments, NM = not measurable, read-out: GALR2 EC50.

Read-outs that look alike come from different tables or passages of the source. Where a SMILES comes first, the peptide text is derived from it. Where no end group is shown, it is not given here. [ ]: non-standard residue; d: D form. Cit = NC(=O)NCCC[C@H](N)C(=O)O

Experimental for human GALR2: (§1) The generated mutant SPX peptides were incubated with cells expressing GALR2 and GALR3. […] The activities of the receptors were traced using the serum-response element-driven luciferase (SRE-luc) assay system.
(§2) The SRE-luc reporter vector and plasmid containing human GALR1, GALR2, or GALR3 were transfected into HEK293 cells that stably expressed Gqi protein. Cells were then treated with increasing concentrations of mutant peptides, and the receptor activities were determined using the SRE-luc reporter system.
(§3) HEK293 cells stably expressing Gαqi, which mediates Gαi-coupled receptor activation by stimulating Gαq-dependent signaling pathways[59], were maintained in Dulbecco’s modified Eagle’s medium (DMEM) supplemented with 10% FBS, 100 U/ml penicillin G, and 100 μg/ml streptomycin (Invitrogen). Cells were seeded in 48-well plates at a density of 2 × 10^4 cells per well, one day before transfection. A mixture containing 75 ng of the SRE-luc reporter construct, 75 ng of expression plasmid, and 2 μl of Effectene reagent (Qiagen, Chatsworth, CA, USA) was prepared and added to each well according to the manufacturer’s instructions. Cells were then maintained in serum-free DMEM for 16–18 h before treatment with the ligands. Approximately 48 h after transfection, cells were treated with the respective ligands for 6 h. Cells were lysed by the addition of 100 μl lysis buffer. The luciferase activity in 50 μl of cell extract was determined by a luciferase assay system according to the standard protocol for the Synergy 2 Multi-Mode Microplate Reader (BioTek, Winooski, VT, USA).
(§4) For in vitro studies data analysis was performed by nonlinear regression with a sigmoidal dose-response. The agonist concentrations that induced half-maximal stimulation (EC50) or half-maximal inhibition of binding (IC50) were calculated with GraphPad PRISM4 software (GraphPad Software Inc., San Diego, CA, USA). […] All data are presented as mean ± S.E. of at least three independent experiments and a P value of P < 0.05 was considered statistically significant.
Experimental for human GALR3: as §1, §2, §3, §4

For the compound NWTPNAMLYLKGAQ-NH2 [N5], the EC50 – broadly, the concentration needed to bring the measured effect to its halfway point – at human GALR3 (setting [1]) was determined as 0.501 ± 0.184 µM; on human GALR2 (setting [2]), 0.0617 ± 0.0127 µM.
For `CSCC[C@H](NC(=O)[C@H](C)NC(=O)[C@H](CCC(N)=O)NC(=O)[C@@H]1CCCN1C(=O)[C@@H](NC(=O)[C@H](Cc1c[nH]c2ccccc12)NC(=O)[C@@H](N)CC(N)=O)[C@@H](C)O)C(=O)N[C@@H](CC(C)C)C(=O)N[C@@H](Cc1ccc(O)cc1)C(=O)N[C@@H](CC(C)C)C(=O)N[C@@H](CCCCN)C(=O)N[C@H](C)C(=O)N[C@@H](C)C(=O)N[C@@H](CCC(N)=O)C(N)=O` [dA12] (H-NWTPQAMLYLK[dA]AQ-NH2), in that order: 1.41 ± 0.21 µM and 1.23 ± 0.159 µM.
For `CSCC[C@H](NC(=O)[C@H](C)NC(=O)[C@H](CCC(N)=O)NC(=O)[C@@H]1CCCN1C(=O)[C@@H](NC(=O)[C@H](Cc1c[nH]c2ccccc12)NC(=O)[C@@H](N)CC(N)=O)[C@@H](C)O)C(=O)N[C@@H](CC(C)C)C(=O)N[C@@H](Cc1ccc(O)cc1)C(=O)N[C@H](CC(C)C)C(=O)N[C@@H](CCCCN)C(=O)NCC(=O)N[C@@H](C)C(=O)N[C@@H](CCC(N)=O)C(N)=O` [dL10], in that order: above 10 µM and above 10 µM.
The like results for `CSCC[C@H](NC(=O)[C@H](C)NC(=O)[C@H](CCC(N)=O)NC(=O)[C@@H]1CCCN1C(=O)[C@@H](NC(=O)[C@H](Cc1c[nH]c2ccccc12)NC(=O)[C@@H](N)CCCNC(N)=O)[C@@H](C)O)C(=O)N[C@@H](CC(C)C)C(=O)N[C@@H](Cc1ccc(O)cc1)C(=O)N[C@@H](CC(C)C)C(=O)N[C@@H](CCCCN)C(=O)NCC(=O)N[C@@H](C)C(=O)N[C@@H](CCC(N)=O)C(N)=O` [Cit1] (H-[Cit]WTPQAMLYLKGAQ-NH2) were, in that order, 0.251 ± 0.065 µM and 0.0617 ± 0.019 µM.
As for NWTPQAALYLFGAQ-NH2 [A7F11], the concentration for a half-maximal effect (EC50) at human GALR3 (setting [1]) was above 10 µM; at human GALR2 (setting [2]), 0.145 ± 0.027 µM.
The like results for `CSCC[C@H](NC(=O)[C@@H](C)NC(=O)[C@H](CCC(N)=O)NC(=O)[C@@H]1CCCN1C(=O)[C@@H](NC(=O)[C@H](Cc1c[nH]c2ccccc12)NC(=O)[C@@H](N)CC(N)=O)[C@@H](C)O)C(=O)N[C@@H](CC(C)C)C(=O)N[C@@H](Cc1ccc(O)cc1)C(=O)N[C@@H](CC(C)C)C(=O)N[C@@H](CCCCN)C(=O)NCC(=O)N[C@@H](C)C(=O)N[C@@H](CCC(N)=O)C(N)=O` [dA6] were, in that order, 0.316 ± 0.0471 µM and 0.209 ± 0.027 µM.
For GWTPQAMLYLKGAQ-NH2 [G1], in that order: 0.0933 ± 0.0209 µM and 0.0363 ± 0.00747 µM.
In the case of NWTPQAALYLKGAQ-NH2 [A7], the half-maximal effective concentration (EC50) on human GALR3 (setting [1]) worked out at 0.468 ± 0.0696 µM; on human GALR2 (setting [2]), 0.0389 ± 0.00728 µM.
For NWTPNAALYLFGAH-NH2 [N5A7F11H14], in that order: 3.02 ± 0.978 µM and 0.0545 ± 0.0108 µM.
The like results for NWTPQAMLYLKGAH-NH2 [Ha14] were, in that order, 0.0708 ± 0.0105 µM and 0.0537 ± 0.00692 µM.
The like results for NWTPNAALYLFGAQ-NH2 [N5A7F11] were, in that order, above 10 µM and 0.107 ± 0.0201 µM.
Turning to NWTPQAMLYLLGAQ-NH2 [L11], the results for the concentration giving a half-maximal response (EC50) at human GALR3 (setting [1]) and on human GALR2 (setting [2]) were 0.331 ± 0.062 µM and 0.0363 ± 0.01 µM, respectively.
For `CSCC[C@H](NC(=O)[C@H](C)NC(=O)[C@H](CCC(N)=O)NC(=O)[C@@H]1CCCN1C(=O)[C@H](NC(=O)[C@H](Cc1c[nH]c2ccccc12)NC(=O)[C@@H](N)CC(N)=O)[C@H](C)O)C(=O)N[C@@H](CC(C)C)C(=O)N[C@@H](Cc1ccc(O)cc1)C(=O)N[C@@H](CC(C)C)C(=O)N[C@@H](CCCCN)C(=O)NCC(=O)N[C@@H](C)C(=O)N[C@@H](CCC(N)=O)C(N)=O` [dT3], in that order: above 10 µM and above 10 µM.
The like results for `CSCC[C@H](NC(=O)[C@H](C)NC(=O)[C@H](CCC(N)=O)NC(=O)[C@@H]1CCCN1C(=O)[C@@H](NC(=O)[C@H](Cc1c[nH]c2ccccc12)NC(=O)[C@@H](N)CC(N)=O)[C@@H](C)O)C(=O)N[C@@H](CC(C)C)C(=O)N[C@H](Cc1ccc(O)cc1)C(=O)N[C@@H](CC(C)C)C(=O)N[C@@H](CCCCN)C(=O)NCC(=O)N[C@@H](C)C(=O)N[C@@H](CCC(N)=O)C(N)=O` [dY9] were, in that order, above 10 µM and above 10 µM.
As to NWTPQAMLYLFGAQ-NH2 [F11], the EC50 turned out to be 0.708 ± 0.119 µM at human GALR3 and 0.049 ± 0.0101 µM on human GALR2.
